These results are taken from PMC12102759 (Protein Science : A Publication of the Protein Society, 2025).

This experiment relates to PABPC1 PABC. The class given is binding, human. The following applies: DMS-BM library, bait PABPC1 PABC, row aa = residue at this position; for DMS-derived PSSM value, position T3 / DMS-derived PSSM value, position T1 / DMS-derived PSSM value (averaged), position T1: T = wild type; for DMS-derived PSSM value, position E8 / DMS-derived PSSM value (averaged), position E8: E = wild type.

Setting [1] is: prey ATXN2, TLNPNAKEFNPRSF(averaged) over the two overlapping peptides, L = wild type.
The mark [2] stands for this setting: prey ATXN2, peptide KSTLNPNAKEFNPRSF, K = wild type.
[3] abbreviates: prey ATXN2, peptide KSTLNPNAKEFNPRSF
Setting [4] is: prey ATXN2, TLNPNAKEFNPRSF(averaged) over the two overlapping peptides, N = wild type.
Setting [5] is: prey ATXN2, TLNPNAKEFNPRSF(averaged) over the two overlapping peptides, F = wild type.
Setting [6] is: prey ATXN2, peptide TLNPNAKEFNPRSFSQ, F = wild type.
The mark [7] stands for this setting: prey ATXN2, peptide TLNPNAKEFNPRSFSQ
Where [8] appears, read: prey ATXN2, peptide TLNPNAKEFNPRSFSQ, N = wild type.
Where [9] appears, read: prey ATXN2, TLNPNAKEFNPRSF(averaged) over the two overlapping peptides, K = wild type.
[10] abbreviates: prey ATXN2, peptide TLNPNAKEFNPRSFSQ, S = wild type.
Where [11] appears, read: prey ATXN2, TLNPNAKEFNPRSF(averaged) over the two overlapping peptides.
Setting [12] is: prey ATXN2, peptide KSTLNPNAKEFNPRSF, R = wild type.
The mark [13] stands for this setting: prey ATXN2, peptide TLNPNAKEFNPRSFSQ, R = wild type.
The mark [14] stands for this setting: prey ATXN2, peptide KSTLNPNAKEFNPRSF, F = wild type.
[15] abbreviates: prey ATXN2, TLNPNAKEFNPRSF(averaged) over the two overlapping peptides, S = wild type.
The mark [16] stands for this setting: prey ATXN2, peptide KSTLNPNAKEFNPRSF, P = wild type.
Where [17] appears, read: prey ATXN2, peptide KSTLNPNAKEFNPRSF, N = wild type.
[18] abbreviates: prey ATXN2, peptide TLNPNAKEFNPRSFSQ, P = wild type.

Where two headings read alike, the source gives them in different places.

Consider “TLNPNAKEFNPRSF(averaged) L2K (TKNPNAKEFNPRSF)”, for which the “DMS-derived PSSM value (averaged), position L2” value under setting [1] was found to be 0.0007818.

Turning to “TLNPNAKEFNPRSF(averaged) P4H (TLNHNAKEFNPRSF)”, the “DMS-derived PSSM value (averaged), position P4” value (prey ATXN2, TLNPNAKEFNPRSF(averaged) over the two overlapping peptides, P = wild type) worked out at 0.02342. Turning to KSTLNPNAKEFNPRSF K9H (KSTLNPNAHEFNPRSF), the “DMS-derived PSSM value, position K9” value under setting [2] came to 0.04428. As to KSTLNPNAKEFNPRSF T3R (KSRLNPNAKEFNPRSF), the “DMS-derived PSSM value, position T3” value under setting [3] was 0. For “TLNPNAKEFNPRSF(averaged) N3L (TLLPNAKEFNPRSF)”, the “DMS-derived PSSM value (averaged), position N3” value under setting [4] came to 0.

Take “TLNPNAKEFNPRSF(averaged) F9A (TLNPNAKEANPRSF)”: under setting [5], the “DMS-derived PSSM value (averaged), position F9” value came out at 0. Turning to TLNPNAKEFNPRSFSQ F9D (TLNPNAKEDNPRSFSQ), the “DMS-derived PSSM value, position F9” value under setting [6] was 0.002637. TLNPNAKEFNPRSFSQ E8K (TLNPNAKKFNPRSFSQ): the “DMS-derived PSSM value, position E8” value under setting [7] was 0. As for TLNPNAKEFNPRSFSQ N3K (TLKPNAKEFNPRSFSQ), the “DMS-derived PSSM value, position N3” value under setting [8] is listed as 0. Take “TLNPNAKEFNPRSF(averaged) K7A (TLNPNAAEFNPRSF)”: the “DMS-derived PSSM value (averaged), position K7” value under setting [9] was 0.1204.

For the substance KSTLNPNAKEFNPRSF T3Y (KSYLNPNAKEFNPRSF), the “DMS-derived PSSM value, position T3” value under setting [3] amounted to 0.005309. On to “TLNPNAKEFNPRSF(averaged) N5S (TLNPSAKEFNPRSF)”, for which the “DMS-derived PSSM value (averaged), position N5” value under setting [4] turned out to be 0.02321. In the case of “TLNPNAKEFNPRSF(averaged) R12Y (TLNPNAKEFNPYSF)”, the “DMS-derived PSSM value (averaged), position R12” value (prey ATXN2, TLNPNAKEFNPRSF(averaged) over the two overlapping peptides, R = wild type) was 0.04827. Regarding “TLNPNAKEFNPRSFSQ S15Q (TLNPNAKEFNPRSFQQ)”, the “DMS-derived PSSM value, position S15” value under setting [10] turned out to be 0.01622. As for TLNPNAKEFNPRSFSQ N5D (TLNPDAKEFNPRSFSQ), the “DMS-derived PSSM value, position N5” value under setting [8] was found to be 0.00392. With “TLNPNAKEFNPRSF(averaged) E8K (TLNPNAKKFNPRSF)”, the “DMS-derived PSSM value (averaged), position E8” value under setting [11] amounted to 0.03159.

Consider “TLNPNAKEFNPRSF(averaged) A6T (TLNPNTKEFNPRSF)”, for which the “DMS-derived PSSM value (averaged), position A6” value (prey ATXN2, TLNPNAKEFNPRSF(averaged) over the two overlapping peptides, A = wild type) is given as 0.133.

For the substance “KSTLNPNAKEFNPRSF R14D (KSTLNPNAKEFNPDSF)”, under setting [12], the “DMS-derived PSSM value, position R14” value is 0.

As to “TLNPNAKEFNPRSFSQ N10T (TLNPNAKEFTPRSFSQ)”, the “DMS-derived PSSM value, position N10” value under setting [8] turned out to be 0.03853. “TLNPNAKEFNPRSFSQ S15D (TLNPNAKEFNPRSFDQ)”: the “DMS-derived PSSM value, position S15” value under setting [10] came out at 0.0138. As to “TLNPNAKEFNPRSFSQ R12E (TLNPNAKEFNPESFSQ)”, the “DMS-derived PSSM value, position R12” value under setting [13] turned out to be 0.01629. For the substance TLNPNAKEFNPRSFSQ T1Q (QLNPNAKEFNPRSFSQ), the “DMS-derived PSSM value, position T1” value under setting [7] was 0.00769. As for “TLNPNAKEFNPRSF(averaged) L2N (TNNPNAKEFNPRSF)”, the “DMS-derived PSSM value (averaged), position L2” value under setting [1] came to 0. Consider “KSTLNPNAKEFNPRSF F16T (KSTLNPNAKEFNPRST)”, for which the “DMS-derived PSSM value, position F16” value under setting [14] is 0.02121.

As for “TLNPNAKEFNPRSF(averaged) S13P (TLNPNAKEFNPRPF)”, the “DMS-derived PSSM value (averaged), position S13” value under setting [15] is reported as 0.06349.

For the substance KSTLNPNAKEFNPRSF P6V (KSTLNVNAKEFNPRSF), the “DMS-derived PSSM value, position P6” value under setting [16] is 0.3743. Regarding “TLNPNAKEFNPRSF(averaged) T1Y (YLNPNAKEFNPRSF)”, the “DMS-derived PSSM value (averaged), position T1” value under setting [11] turned out to be 0.168. Consider “KSTLNPNAKEFNPRSF F11V (KSTLNPNAKEVNPRSF)”, for which the “DMS-derived PSSM value, position F11” value under setting [14] is on record as 0. “TLNPNAKEFNPRSF(averaged) E8G (TLNPNAKGFNPRSF)”: the “DMS-derived PSSM value (averaged), position E8” value under setting [11] stood at 0.

With KSTLNPNAKEFNPRSF N5E (KSTLEPNAKEFNPRSF), the “DMS-derived PSSM value, position N5” value under setting [17] worked out at 0.

With “TLNPNAKEFNPRSF(averaged) E8V (TLNPNAKVFNPRSF)”, the “DMS-derived PSSM value (averaged), position E8” value under setting [11] was 0.141. Turning to “TLNPNAKEFNPRSF(averaged) T1M (MLNPNAKEFNPRSF)”, the “DMS-derived PSSM value (averaged), position T1” value under setting [11] amounted to 0.04356. In the case of “KSTLNPNAKEFNPRSF R14N (KSTLNPNAKEFNPNSF)”, the “DMS-derived PSSM value, position R14” value under setting [12] is given as 0.007229. “TLNPNAKEFNPRSFSQ P11R (TLNPNAKEFNRRSFSQ)”: the “DMS-derived PSSM value, position P11” value under setting [18] worked out at 0.006355.

As to TLNPNAKEFNPRSFSQ F9G (TLNPNAKEGNPRSFSQ), the “DMS-derived PSSM value, position F9” value under setting [6] is 0. Consider TLNPNAKEFNPRSFSQ P4K (TLNKNAKEFNPRSFSQ), for which the “DMS-derived PSSM value, position P4” value under setting [18] is 0. With KSTLNPNAKEFNPRSF A8G (KSTLNPNGKEFNPRSF), the “DMS-derived PSSM value, position A8” value (prey ATXN2, peptide KSTLNPNAKEFNPRSF, A = wild type) is 0.

As to KSTLNPNAKEFNPRSF T3G (KSGLNPNAKEFNPRSF), the “DMS-derived PSSM value, position T3” value under setting [3] is recorded as 0.0785.

On to “TLNPNAKEFNPRSFSQ F14P (TLNPNAKEFNPRSPSQ)”, for which the “DMS-derived PSSM value, position F14” value under setting [6] is on record as 0.06984. As for “TLNPNAKEFNPRSFSQ S13K (TLNPNAKEFNPRKFSQ)”, the “DMS-derived PSSM value, position S13” value under setting [10] is reported as 0.007933. On to KSTLNPNAKEFNPRSF T3M (KSMLNPNAKEFNPRSF), for which the “DMS-derived PSSM value, position T3” value under setting [3] amounted to 0.08084.

For the substance TLNPNAKEFNPRSFSQ L2K (TKNPNAKEFNPRSFSQ), the “DMS-derived PSSM value, position L2” value (prey ATXN2, peptide TLNPNAKEFNPRSFSQ, L = wild type) turned out to be 0.001564.

Turning to “TLNPNAKEFNPRSF(averaged) F14M (TLNPNAKEFNPRSM)”, the “DMS-derived PSSM value (averaged), position F14” value under setting [5] is given as 0.1425. On to KSTLNPNAKEFNPRSF S2Q (KQTLNPNAKEFNPRSF), for which, for the setting “prey ATXN2, peptide KSTLNPNAKEFNPRSF, S = wild type”, the “DMS-derived PSSM value, position S2” value was determined as 0.001157. Take KSTLNPNAKEFNPRSF N7G (KSTLNPGAKEFNPRSF): the “DMS-derived PSSM value, position N7” value under setting [17] turned out to be 0.

As for KSTLNPNAKEFNPRSF K9D (KSTLNPNADEFNPRSF), the “DMS-derived PSSM value, position K9” value under setting [2] was determined as 0.007291.

As for TLNPNAKEFNPRSFSQ N3W (TLWPNAKEFNPRSFSQ), the “DMS-derived PSSM value, position N3” value under setting [8] came out at 0. Regarding “TLNPNAKEFNPRSF(averaged) K7V (TLNPNAVEFNPRSF)”, under setting [9], the “DMS-derived PSSM value (averaged), position K7” value is given as 0.003972. “KSTLNPNAKEFNPRSF R14W (KSTLNPNAKEFNPWSF)”: the “DMS-derived PSSM value, position R14” value under setting [12] turned out to be 0.1772. As to “TLNPNAKEFNPRSFSQ N10Y (TLNPNAKEFYPRSFSQ)”, under setting [8], the “DMS-derived PSSM value, position N10” value is recorded as 0.09858. Consider “TLNPNAKEFNPRSF(averaged) F14N (TLNPNAKEFNPRSN)”, for which the “DMS-derived PSSM value (averaged), position F14” value under setting [5] was 0.05683. In the case of KSTLNPNAKEFNPRSF P6L (KSTLNLNAKEFNPRSF), the “DMS-derived PSSM value, position P6” value under setting [16] is 0.1435. With “TLNPNAKEFNPRSF(averaged) S13A (TLNPNAKEFNPRAF)”, the “DMS-derived PSSM value (averaged), position S13” value under setting [15] worked out at 0.1254.

Take TLNPNAKEFNPRSFSQ E8A (TLNPNAKAFNPRSFSQ): under setting [7], the “DMS-derived PSSM value, position E8” value is 0.02248. Turning to TLNPNAKEFNPRSFSQ P4L (TLNLNAKEFNPRSFSQ), the “DMS-derived PSSM value, position P4” value under setting [18] was 0.05708. Regarding TLNPNAKEFNPRSFSQ T1I (ILNPNAKEFNPRSFSQ), the “DMS-derived PSSM value, position T1” value under setting [7] was determined as 0.00436. “TLNPNAKEFNPRSFSQ R12N (TLNPNAKEFNPNSFSQ)”: the “DMS-derived PSSM value, position R12” value under setting [13] worked out at 0.04731. As to “KSTLNPNAKEFNPRSF F11P (KSTLNPNAKEPNPRSF)”, under setting [14], the “DMS-derived PSSM value, position F11” value is recorded as 0.

Take KSTLNPNAKEFNPRSF T3K (KSKLNPNAKEFNPRSF): the “DMS-derived PSSM value, position T3” value under setting [3] was found to be 0. Consider TLNPNAKEFNPRSFSQ K7G (TLNPNAGEFNPRSFSQ), for which the “DMS-derived PSSM value, position K7” value (prey ATXN2, peptide TLNPNAKEFNPRSFSQ, K = wild type) amounted to 0.01102.
